Assay results: patent US20060083790A1, “Combination of an ibat inhibitor and a metal salt for the treatment of diarrhoea” (priority 2002, published 2006)
Like-named read-outs stand apart in the source and are kept apart here.

How the values were obtained:
[1] = for Concentration of bile acids: pH 7.4, supernatant
Experimental: A solution containing a mixture of bile acids was prepared by dissolving the following components in deionised water:
The pH was adjusted to 7.4.
A calcium chloride solution was prepared by dissolving the following components in deionised water:
2.0 ml of the bile acid solution was added to each of 6 glass vials. A known volume, varying from 0 to 300 μl, of the calcium chloride solution was added to each vial. Each sample was inspected visually immediately after the calcium chloride addition. 1.5 ml of each sample was transferred into a centrifugation tube and centrifuged for 20 mins at 14 000 rpm. The clear supernatant was collected and analysed with respect to bile acid content. The analyses were carried out using a bile acid analysis kit which employs an enzymatic colour reaction. The concentration of bile acid is proportional to the colour intensity which is determined by spectrophotometry.

[2] = for Absorbance (taurocholate concentration after the enzymatic colour reaction): pH 6.5, supernatant
Experimental: A solution simulating the human intestinal fluid in the fasted state, FaSSIF, was prepared by dissolving the following components in deionised water.
The pH was adjusted to 6.5.
A separate solution of calcium chloride was prepared by dissolving 149.2 mM of the salt in deionised water.
5.0 ml of FaSSIF was added to each of 7 glass vials. A known volume, varying from 0 to 0.5 ml, of the calcium chloride solution was added to each vial. Each sample was inspected visually immediately after the calcium chloride addition.
A volume of 1.0 ml was withdrawn from each sample and centrifuged for 20 mins at 14 000 rpm. The clear supernatant of each sample was collected and analysed with respect to bile acid content. The analyses were carried out using a bile acid analysis kit which employs an enzymatic colour reaction. The concentration of bile acid is proportional to the colour intensity which is determined by spectrophotometry.

[3] = dog
Experimental: The IBAT inhibitor is dosed orally at a dose that will cause diarrhoea, for example 25-50 μmol/kg. The metal salt is then introduced into the colon, through the fistulae, to see if the diarrhoea can be prevented. The dose of the metal salt varies and can be determined after analysing the bile acid concentration in faeces from dogs having been exposed to the same dose of the IBAT inhibitor.
A solution of an BAT inhibitor was administered directly into the stomach of the dog via an orogastric tube (t=0 hours). The dog was fed 30 minutes after the administration of the IBAT inhibitor (t=0.5 hours).
Faeces was collected during the first 8 hours after administration, and the time for each bowel movement was recorded. Each faeces sample was homogenized with a high-shear mixer and, subsequently, centrifuged in order to separate the solid material from the faecal water phase. The faecal water was collected and analysed with respect to bile acid content. The amount of bile acid in the faecal water was related to the amount of solid material in each faeces sample.

[4] = 200 mg crystalline calcium phosphate in 10 ml, initial DC 1-20 mM, pH 7.4, all samples
Experimental: A stock solution of sodium deoxycholate (DC) was prepared by dissolving the following substances in deionised water:
(§1) The pH was adjusted to 7.4 with sodium hydroxide.
(§2) A similar buffer solution with the same content, except for the bile acid was also prepared.
The resulting initial DC concentrations in the samples were 1-20 mM. The samples were equilibrated for several hours. The solid material in the samples were removed by centrifugation and/or filtration, and the obtained clear supernatants were analysed with respect to DC content. The analyses were carried out by HPLC.

[5] = 200 mg crystalline calcium phosphate in 10 ml, initial GDC 1-15 mM, pH 7.4, all samples
Experimental: A stock solution of sodium glycodeoxycholate (GDC) was prepared by dissolving the following substances in deionised water:
as §1, §2
The resulting initial GDC concentrations in the samples were 1-15 mM. The samples were equilibrated for several hours. The solid material in the samples were removed by centrifugation and/or filtration, and the obtained clear supernatants were analysed with respect to GDC content. The analyses were carried out by HPLC.

[6] = with increasing added amount of calcium chloride

| Molecule | Concentration of bile acids ([1]; 3.0 μmol calcium chloride added to 2.0 ml bile acid solution) | Concentration of bile acids ([1]; 6.0 μmol calcium chloride added to 2.0 ml bile acid solution) | Concentration of bile acids ([1]; 12.0 μmol calcium chloride added to 2.0 ml bile acid solution) | Concentration of bile acids ([1]; 30.0 μmol calcium chloride added to 2.0 ml bile acid solution) | Concentration of bile acids ([1]; 60.1 μmol calcium chloride added to 2.0 ml bile acid solution) | Visual inspection immediately after calcium chloride addition ([1]; bile acid mixture, all samples with calcium chloride) | Concentration of bile acids in the aqueous solution, trend [1, 6] | Absorbance (taurocholate concentration after the enzymatic colour reaction) ([2]; 7.5 μmol calcium chloride added to 5.0 ml FaSSIF) | Absorbance (taurocholate concentration after the enzymatic colour reaction) ([2]; 14.9 μmol calcium chloride added to 5.0 ml FaSSIF) | Absorbance (taurocholate concentration after the enzymatic colour reaction) ([2]; 22.4 μmol calcium chloride added to 5.0 ml FaSSIF) | Absorbance (taurocholate concentration after the enzymatic colour reaction) ([2]; 29.8 μmol calcium chloride added to 5.0 ml FaSSIF) | Absorbance (taurocholate concentration after the enzymatic colour reaction) ([2]; 44.8 μmol calcium chloride added to 5.0 ml FaSSIF) | Absorbance (taurocholate concentration after the enzymatic colour reaction) ([2]; 74.6 μmol calcium chloride added to 5.0 ml FaSSIF) | Visual inspection immediately after calcium chloride addition ([2]; FaSSIF, all samples with calcium chloride) | Concentration of taurocholate in the aqueous solution, trend [2, 6] | Bile acid concentration in faecal water ([3]; IBAT inhibitor into the stomach at t=0, intracolonic calcium chloride at t=1 hour, as long as calcium chloride is present in the colon) | Time after which most of the calcium chloride has been removed from the colon ([3]; intracolonic administration, removed by absorption or by bowel movements) | DC concentration in supernatant (HPLC) [4] | GDC concentration in supernatant (HPLC) [5] |
| --- | --- | --- | --- | --- | --- | --- | --- | --- | --- | --- | --- | --- | --- | --- | --- | --- | --- | --- | --- |
| [Ca+2].[Cl-].[Cl-] [calcium chloride] | 2.2 mM | 2.1 mM | 1.9 mM | 0.8 mM | 0.7 mM | a precipitate was formed in all samples | decreased with increasing added amount of calcium chloride | 0.0933 | 0.0890 | 0.0843 | 0.0783 | 0.0735 | 0.0718 | A precipitate was formed in all samples | decreased with increasing added amount of calcium chloride | relatively constant | approximately 3.5 hours | – | – |
| calcium phosphate | – | – | – | – | – | – | – | – | – | – | – | – | – | – | – | – | – | reduced by the presence of calcium phosphate in all samples | reduced by the presence of calcium phosphate in all samples |
